From the NIST ThermoML archive (doi:10.1021/je2012633)

Test: xn = mol fraction of the nth substance listed
Conditions: 101 kPa, Liquid, Vibrating tube method

CCCCCCCCOS(=O)(=O)[O-].CCn1cc[n+](C)c1 [1-ethyl-3-methylimidazolium octyl sulfate] + O
mass density [kg/m3]
Conditions | x1 = 0.0053 | x1 = 0.1002 | x1 = 0.3923 | x1 = 0.5963 | x1 = 0.7373 | x1 = 0.7747 | x1 = 0.8545 | x1 = 0.9371 | x1 = 1
298.15 K | 1005.3 | 1060.6 | 1086.3 | 1090.5 | 1092.1 | 1092.4 | 1093 | 1093.5 | 1093.8
308.15 K | 1001.8 | 1054 | 1079.6 | 1083.8 | 1085.5 | 1085.7 | 1086.4 | 1086.9 | 1087
318.15 K | 997.3 | 1047.4 | 1072.9 | 1077.2 | 1079.1 | 1079.2 | 1079.9 | 1080.4 | 1080.5

CCCCCCOS(=O)(=O)[O-].CC[n+]1ccn(C)c1 [3-ethyl-1-methyl-1H-imidazolium hexyl sulfate] + CCO
mass density [kg/m3]
Conditions | x1 = 0.0977 | x1 = 0.2202 | x1 = 0.3246 | x1 = 0.4377 | x1 = 0.4947 | x1 = 0.6214 | x1 = 0.7252 | x1 = 0.7455 | x1 = 0.9063 | x1 = 1
288.15 K | 911.2 | 990 | 1031.7 | 1063.2 | 1075.5 | 1097.3 | 1110.9 | 1113.2 | 1128.5 | 1136.6
298.15 K | 903.4 | 982.4 | 1024.3 | 1056 | 1068.4 | 1090.4 | 1104.1 | 1106.4 | 1121.8 | 1129.6
308.15 K | 895.3 | 974.9 | 1017.1 | 1048.9 | 1061.4 | 1083.5 | 1097.4 | 1099.7 | 1115.2 | 1123.1
318.15 K | 887.4 | 967.4 | 1009.8 | 1042 | 1054.4 | 1076.8 | 1090.7 | 1093 | 1108.8 | 1116.6

CCCCCCOS(=O)(=O)[O-].CC[n+]1ccn(C)c1 [3-ethyl-1-methyl-1H-imidazolium hexyl sulfate] + O
mass density [kg/m3]
Conditions | x1 = 0.0501 | x1 = 0.0965 | x1 = 0.2075 | x1 = 0.3982 | x1 = 0.582 | x1 = 0.7243 | x1 = 0.7976 | x1 = 0.9346 | x1 = 1
288.15 K | 1061.4 | 1086.5 | 1111.4 | 1125.8 | 1131.2 | 1133.5 | 1134.5 | 1135.8 | 1136.6
298.15 K | 1056 | 1080.2 | 1104.8 | 1119 | 1124.5 | 1126.8 | 1127.7 | 1129 | 1129.6
308.15 K | 1050.2 | 1073.7 | 1097.8 | 1112.2 | 1117.8 | 1120.3 | 1121.2 | 1122.3 | 1123.1
318.15 K | 1044.1 | 1066.9 | 1090.8 | 1105.4 | 1111.2 | 1113.8 | 1114.7 | 1115.8 | 1116.6
